In ChEMBL document CHEMBL5579860, “Design and synthesis of novel Thiazolo[5,4-b]pyridine derivatives as potent and selective EGFR-TK inhibitors targeting resistance Mutations in non-small cell lung cancer” (Eur J Med Chem, 2024) one finds IC50, Activity and inhibition data, which are given here for 46 compounds.

Calls of active or inactive are those of the source. The calls are words filed in the database; no cut-off is given here.

In general, IC50 refers to the concentration that gives 50% inhibition.

In data set [1] the test system is HCC827. The experiment in a line: Anticancer activity against human HCC827 cells incubated for 72 hrs by MTT assay. Type of data set: functional, cell-based. The note with it: HCC827, 72 h. On the technique in general: Formazan colour is commonly taken as a measure of viable cells.
A further data set concerns NCI-H1975. In words: Anticancer activity against human NCI-H1975 cells incubated for 72 hrs by MTT assay. The class given is functional, cell-based. The note with it: NCI-H1975, 72 h.
Another data set concerns A549. In words: Anticancer activity against human A549 cells incubated for 72 hrs by MTT assay. Type of data set: functional, cell-based. To be noted: A549, 72 h.
Data set [2] can be described thus: Cytotoxicity against human BEAS-2B cells. The class given is toxicity, cell-based.
The test system of data set [3] is HCC827. The experiment in a line: Induction of apoptosis in human HCC827 cells assessed as early apoptotic cells at IC50 concentration incubated for 24 to 48 hrs by Annexin V-FITC/PI staining based flow cytometry ( Rvb = 2.0% ). The class given is functional. The note with it: time 24-48 hrs. On the technique in general: In flow cytometry, cells or beads pass a laser one at a time.

The test system of data set [4] is HCC827. In words: Induction of apoptosis in human HCC827 cells assessed as late apoptotic cells at IC50 concentration incubated for 24 to 48 hrs by Annexin V-FITC/PI staining based flow cytometry ( Rvb = 1.6% ). The class given is functional. The note with it: time 24-48 hrs.
The target in data set [5] is Epidermal growth factor receptor (Homo sapiens) (UniProt P00533). In words: Inhibition of EGFR autophosphorylation in human HCC827 cells at 0.01 to 1.00 uM incubated for 8 hrs by Western blot analysis. Type of data set: cell-based. To be noted: dose 0.01-1 µM. (Immunoblotting shows a protein as a band on a membrane.)
Sequence of Epidermal growth factor receptor (Homo sapiens) (P00533 whole entry): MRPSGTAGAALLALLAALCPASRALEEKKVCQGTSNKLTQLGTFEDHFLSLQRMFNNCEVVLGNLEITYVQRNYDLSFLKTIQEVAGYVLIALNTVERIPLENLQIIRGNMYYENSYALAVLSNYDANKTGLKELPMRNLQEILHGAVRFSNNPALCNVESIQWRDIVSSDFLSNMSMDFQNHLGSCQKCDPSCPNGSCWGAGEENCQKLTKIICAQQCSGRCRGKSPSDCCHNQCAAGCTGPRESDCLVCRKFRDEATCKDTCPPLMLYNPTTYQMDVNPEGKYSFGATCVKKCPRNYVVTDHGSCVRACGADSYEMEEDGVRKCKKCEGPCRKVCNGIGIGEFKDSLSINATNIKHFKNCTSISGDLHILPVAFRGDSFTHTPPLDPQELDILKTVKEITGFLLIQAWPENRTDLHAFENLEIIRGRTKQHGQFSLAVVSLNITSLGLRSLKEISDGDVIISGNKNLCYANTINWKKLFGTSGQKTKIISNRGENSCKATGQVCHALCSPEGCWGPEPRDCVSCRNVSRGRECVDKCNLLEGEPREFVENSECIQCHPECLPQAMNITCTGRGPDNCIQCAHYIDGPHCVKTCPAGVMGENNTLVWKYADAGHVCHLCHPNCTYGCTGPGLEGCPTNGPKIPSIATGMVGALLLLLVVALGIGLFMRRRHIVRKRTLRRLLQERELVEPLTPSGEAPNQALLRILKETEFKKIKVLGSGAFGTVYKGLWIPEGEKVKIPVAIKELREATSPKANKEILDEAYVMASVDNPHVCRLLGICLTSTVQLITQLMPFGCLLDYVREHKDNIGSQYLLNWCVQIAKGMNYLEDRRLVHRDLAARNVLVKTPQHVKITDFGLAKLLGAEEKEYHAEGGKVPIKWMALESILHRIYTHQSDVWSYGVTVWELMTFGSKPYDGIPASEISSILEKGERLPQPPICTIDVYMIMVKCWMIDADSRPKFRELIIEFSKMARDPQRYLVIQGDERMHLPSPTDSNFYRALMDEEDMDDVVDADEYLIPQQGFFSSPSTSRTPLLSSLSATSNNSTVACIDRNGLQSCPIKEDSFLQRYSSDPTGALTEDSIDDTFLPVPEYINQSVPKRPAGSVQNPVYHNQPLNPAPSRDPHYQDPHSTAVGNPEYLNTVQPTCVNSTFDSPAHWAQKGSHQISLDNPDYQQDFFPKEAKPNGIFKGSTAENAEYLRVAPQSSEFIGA

Regarding `COc1ccc(F)cc1S(=O)(=O)Nc1cccc(-c2nc3cc(-c4cccc(C(F)(F)F)c4)cnc3s2)c1C`, the IC50 with HCC827 [1] stood at 6020 nM; in the data set on NCI-H1975, 6110 nM; in the data set with A549, 10900 nM.
In the same order, the values of `COc1ccc(F)cc1S(=O)(=O)Nc1cccc(-c2nc3cc(-c4cccnc4OC)cnc3s2)c1C` are 4400 nM, 4550 nM and 8410 nM.
The matching figures for `Cc1c(NS(=O)(=O)c2cc(F)ccc2F)cccc1-c1nc2cccnc2s1`: 1160 nM, 1090 nM and 3090 nM.
For `CCc1cnc2sc(-c3cccc(NS(=O)(=O)c4cc(F)ccc4F)c3C)nc2c1`, the values for the 50% inhibitory concentration (IC50) in the data set on HCC827 [1], in the data set with NCI-H1975 and in the data set with A549 were 700 nM, 420 nM and 1480 nM, respectively.
In the same order, the values of `Cc1c(NS(=O)(=O)c2cc(F)ccc2F)cccc1-c1nc2cc(-c3ccccc3)cnc2s1` are 89 nM, 220 nM and 1160 nM.
Turning to `Cc1c(NS(=O)(=O)c2cc(F)ccc2F)cccc1-c1nc2cc(C#N)cnc2s1`, the IC50 with HCC827 [1] is 94 nM; with NCI-H1975, 280 nM; in the data set on A549 it was 1280 nM.
In the same order, the values of `Cc1c(NS(=O)(=O)c2ccccc2OC(F)(F)F)cccc1-c1nc2cccnc2s1` are 1520 nM, 2180 nM and 3190 nM.
Turning to `Cc1c(NS(=O)(=O)C2CCOCC2)cccc1-c1nc2cccnc2s1`, the IC50 was 2110 nM in the data set with HCC827 [1], 3120 nM in the data set with NCI-H1975 and 4180 nM with A549.
The matching figures for `COc1ccc(F)cc1S(=O)(=O)Nc1cccc(-c2nc3cc(CN4CCN(C)CC4)cnc3s2)c1C`: 4500 nM, 4600 nM and 8500 nM.
The matching figures for `COc1ccc(F)cc1S(=O)(=O)Nc1cccc(-c2nc3cc(CN4CCOCC4)cnc3s2)c1C`: 4610 nM, 4700 nM and 8540 nM.
`Cc1c(NS(=O)(=O)c2cc(F)ccc2F)cccc1-c1nc2cc(CN3CCCC3)cnc2s1`: the IC50 with HCC827 [1] was determined as 490 nM; in the data set with NCI-H1975, 520 nM; in the data set with A549, 2180 nM.
The matching figures for `Cc1c(NS(=O)(=O)c2cnn(C)c2)cccc1-c1nc2cccnc2s1`: 2180 nM, 3300 nM and 4230 nM.
`Cc1c(NS(=O)(=O)c2cc(F)ccc2F)cccc1-c1nc2cc(-c3ccc(C(F)(F)F)nc3)cnc2s1`: the half-maximal inhibitory concentration (IC50) in the data set with HCC827 [1] was determined as 44 nM; with NCI-H1975, 220 nM; in the data set on A549, 980 nM.
The matching figures for `COc1ccc(F)cc1S(=O)(=O)Nc1cccc(-c2nc3cc(-c4ccc(C#N)nc4)cnc3s2)c1C`: 4380 nM, 4500 nM and 8330 nM.
In the same order, the values of `COc1cc(-c2cnc3sc(-c4cccc(NS(=O)(=O)c5cc(F)ccc5F)c4C)nc3c2)ccn1` are 42 nM, 180 nM and 960 nM.
For the compound `COc1ccc(F)cc1S(=O)(=O)Nc1cccc(-c2nc3cc(-c4ccccc4)cnc3s2)c1C`, the IC50 in the data set on HCC827 [1] is 6080 nM; with NCI-H1975, 6200 nM; in the data set on A549 it was 11000 nM.
In the same order, the values of `Cc1c(NS(=O)(=O)c2cc(F)ccc2F)cccc1-c1nc2cc(CN3CCN(C)CC3)cnc2s1` are 520 nM, 770 nM and 2310 nM.
In the same order, the values of `COc1ccc(F)cc1S(=O)(=O)Nc1cccc(-c2nc3cc(-c4ccc(C(F)(F)F)nc4)cnc3s2)c1C` are 4360 nM, 4440 nM and 8230 nM.
As to `Cc1c(NS(=O)(=O)c2cc(F)ccc2F)cccc1-c1nc2cc(CN3CCOCC3)cnc2s1`, the IC50 with HCC827 [1] stood at 420 nM; in the data set on NCI-H1975 it was 460 nM; in the data set on A549, 2100 nM.
On to `CC(=O)c1ccc(-c2cnc3sc(-c4cccc(NS(=O)(=O)c5cc(F)ccc5F)c4C)nc3c2)cc1`, for which the values for the half-inhibitory concentration (IC50) with HCC827 [1], with NCI-H1975 and in the data set with A549 were 560 nM, 360 nM and 1420 nM, respectively.
On to `Cc1c(NS(=O)(=O)Cc2ccccc2)cccc1-c1nc2cccnc2s1`, for which the concentration for half-maximal inhibition (IC50) in the data set with HCC827 [1] amounted to 2240 nM; in the data set on NCI-H1975 it was 3410 nM; in the data set with A549 it was 4620 nM.
In the same order, the values of `Cc1c(NS(=O)(=O)c2ccccc2)cccc1-c1nc2cccnc2s1` are 2200 nM, 3320 nM and 4600 nM.
In the same order, the values of `COc1ccc(F)cc1S(=O)(=O)Nc1cccc(-c2nc3cc(-c4cccs4)cnc3s2)c1C` are 4880 nM, 4720 nM and 9080 nM.
In the same order, the values of `COc1ccc(F)cc1S(=O)(=O)Nc1cccc(-c2nc3cc(-c4ccc(C(C)=O)cc4)cnc3s2)c1C` are 6140 nM, 6300 nM and 11400 nM.
`Cc1c(NS(=O)(=O)c2cc(F)ccc2F)cccc1-c1nc2cc(-c3cnc(N)nc3)cnc2s1`: the IC50 in the data set on HCC827 [1] came out at 10 nM; in the data set on NCI-H1975, 80 nM; with A549 it was 820 nM; in data set [2] it was 38400 nM. Also, the Activity in the data set with HCC827 [3] worked out at 31.9%; in the data set on HCC827 [4], 8.8%. In addition, the inhibition result in data set [5] was “Active”.
Turning to `Cc1c(NS(=O)(=O)c2cc(F)ccc2F)cccc1-c1nc2cc(-c3cccc(C(F)(F)F)c3)cnc2s1`, the IC50 in the data set on HCC827 [1] was determined as 92 nM; in the data set on NCI-H1975, 260 nM; in the data set with A549, 1210 nM.
In the case of `COc1ccc(F)cc1S(=O)(=O)Nc1cccc(-c2nc3cc(-c4cc[nH]n4)cnc3s2)c1C`, the IC50 in the data set with HCC827 [1] was 5010 nM; in the data set with NCI-H1975, 4890 nM; in the data set on A549, 9340 nM.
The matching figures for `Cc1c(NS(=O)(=O)c2cc(F)ccc2F)cccc1-c1nc2cc(-c3cc[nH]n3)cnc2s1`: 140 nM, 300 nM and 1340 nM.
Consider `Cc1c(NS(=O)(=O)c2cc(F)ccc2F)cccc1-c1nc2cc(-c3cncnc3)cnc2s1`, for which the IC50 in the data set on HCC827 [1] was found to be 21 nM; in the data set with NCI-H1975, 110 nM; in the data set on A549 it was 880 nM; in data set [2] it was 42100 nM.
Regarding `COc1cccc(-c2cnc3sc(-c4cccc(NS(=O)(=O)c5cc(F)ccc5F)c4C)nc3c2)c1`, the 50% inhibitory concentration (IC50) in the data set on HCC827 [1] was 720 nM; in the data set with NCI-H1975, 340 nM; in the data set on A549, 1090 nM.
`Cc1c(NS(=O)(=O)c2cccc(Cl)c2)cccc1-c1nc2cccnc2s1`: the IC50 in the data set on HCC827 [1] was found to be 1590 nM; with NCI-H1975 it was 2210 nM; with A549 it was 3280 nM.
As for `Cc1c(NS(=O)(=O)c2ccc(F)c(C#N)c2)cccc1-c1nc2cccnc2s1`, the half-inhibitory concentration (IC50) in the data set with HCC827 [1] was 1460 nM; with NCI-H1975, 2100 nM; with A549 it was 3270 nM.
In the case of `Cc1c(NS(=O)(=O)c2ccc(F)cc2F)cccc1-c1nc2cccnc2s1`, the half-maximal inhibitory concentration (IC50) in the data set on HCC827 [1] stood at 1400 nM; in the data set with NCI-H1975 it was 2110 nM; in the data set on A549 it was 3170 nM.
With `Cc1c(NS(=O)(=O)c2cc(F)ccc2F)cccc1-c1nc2cc(-c3cccs3)cnc2s1`, the IC50 was 110 nM in the data set with HCC827 [1], 300 nM in the data set with NCI-H1975 and 1330 nM in the data set with A549.
`Cc1c(N)cccc1-c1nc2cccnc2s1`: the 50% inhibitory concentration (IC50) with HCC827 [1] worked out at 10100 nM; in the data set on NCI-H1975 it was 12700 nM; in the data set with A549, 29100 nM.
As for `COc1ccc(F)cc1S(=O)(=O)Nc1cccc(-c2nc3cc(-c4cncnc4)cnc3s2)c1C`, the IC50 in the data set on HCC827 [1] came out at 4330 nM; with NCI-H1975, 4380 nM; with A549, 8140 nM.
Take `COc1cccc(-c2cnc3sc(-c4cccc(NS(=O)(=O)c5cc(F)ccc5OC)c4C)nc3c2)c1`: the results for the IC50 in the data set on HCC827 [1], with NCI-H1975 and in the data set on A549 were 6210 nM, 7100 nM and 11700 nM, respectively.
Take `COc1ncccc1-c1cnc2sc(-c3cccc(NS(=O)(=O)c4cc(F)ccc4F)c3C)nc2c1`: the IC50 is 40 nM in the data set on HCC827 [1], 150 nM with NCI-H1975, 920 nM in the data set with A549 and 37100 nM in data set [2].
For the compound `COc1cc(-c2cnc3sc(-c4cccc(NS(=O)(=O)c5cc(F)ccc5OC)c4C)nc3c2)ccn1`, the IC50 with HCC827 [1] amounted to 4420 nM; in the data set with NCI-H1975, 4560 nM; in the data set with A549, 8450 nM.
`Cc1c(NS(=O)(=O)c2cccnc2)cccc1-c1nc2cccnc2s1`: the IC50 with HCC827 [1] is 2100 nM; in the data set with NCI-H1975, 3060 nM; in the data set with A549 it was 4100 nM.
As for `C=CC(=O)Nc1cc(Nc2nccc(-c3cn(C)c4ccccc34)n2)c(OC)cc1N(C)CCN(C)C` [OSIMERTINIB], the IC50 in the data set on HCC827 [1] was found to be 7 nM; with A549, 860 nM.
On to `COc1ccc(F)cc1S(=O)(=O)Nc1cccc(-c2nc3cc(C#N)cnc3s2)c1C`, for which the IC50 with HCC827 [1] was determined as 6110 nM; with NCI-H1975, 6250 nM; in the data set with A549 it was 11400 nM.
Take `Cc1c(NS(=O)(=O)c2cc(F)ccc2F)cccc1-c1nc2cc(-c3ccc(C#N)nc3)cnc2s1`: the IC50 in the data set on HCC827 [1] is 41 nM; in the data set with NCI-H1975, 120 nM; in the data set on A549, 910 nM; in data set [2], 37000 nM.
As for `COc1ccc(F)cc1S(=O)(=O)Nc1cccc(-c2nc3cc(-c4cnc(N)nc4)cnc3s2)c1C`, the IC50 in the data set with HCC827 [1] came to 4310 nM; with NCI-H1975 it was 4140 nM; in the data set on A549, 8120 nM.
For the compound `COc1ccc(F)cc1S(=O)(=O)Nc1cccc(-c2nc3cc(-c4cccnc4)cnc3s2)c1C`, the IC50 amounted to 6010 nM with HCC827 [1], 6190 nM in the data set with NCI-H1975 and 11200 nM in the data set with A549.
`CSc1ncc(-c2cnc3sc(-c4cccc(NS(=O)(=O)c5cc(F)ccc5F)c4C)nc3c2)cn1`: the concentration for half-maximal inhibition (IC50) was determined as 10 nM in the data set on HCC827 [1], 90 nM in the data set on NCI-H1975, 800 nM in the data set on A549 and 44100 nM in data set [2].
